Source: PubChem BioAssay (NCI)
Values joined by “and” are separate entries in the source; they are usually repeats but may differ in a detail not shown here. Equal values may be shown once.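 Test compounds were applied to cells in 96-well plates for 48 hours at 5 doses. Abbreviation: GI50, concentration required for 50% inhibition of growth. TGI denotes the concentration required for complete inhibition of growth.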

Columns and labels:
Experiment in all cases: NCI-60 cell line screen, 48 h
786-0 renal = test system: 786-0 renal
BT-549 breast = test system: BT-549 breast
CAKI-1 renal = test system: CAKI-1 renal
MDA-MB-231 breast = test system: MDA-MB-231 breast
OVCAR-4 ovarian = test system: OVCAR-4 ovarian
SF-539 CNS = test system: SF-539 CNS
SK-MEL-28 melanoma = test system: SK-MEL-28 melanoma
SW-620 colon = test system: SW-620 colon

SMILES	GI50 (786-0 renal)	TGI (786-0 renal)	GI50 (BT-549 breast)	TGI (BT-549 breast)	GI50 (CAKI-1 renal)	TGI (CAKI-1 renal)	GI50 (MDA-MB-231 breast)	TGI (MDA-MB-231 breast)	GI50 (OVCAR-4 ovarian)	TGI (OVCAR-4 ovarian)	GI50 (SF-539 CNS)	TGI (SF-539 CNS)	GI50 (SK-MEL-28 melanoma)	TGI (SK-MEL-28 melanoma)	GI50 (SW-620 colon)	TGI (SW-620 colon)
Cc1ccc(NC(=O)/C=C/c2ccccc2)c(C(N)=O)c1	6.41 µM	53 µM	12.5 µM	> 100 µM	6.78 µM	> 59.4 µM	5.37 µM	> 95.7 µM	9.17 µM	> 100 µM	2.07 µM	6.75 µM	3.65 µM	> 100 µM	2.5 µM	> 100 µM
Cc1ccc(C(=O)Nc2cccc(C(F)(F)F)c2)cc1Nc1nc(-c2cccnc2)nc2c1cnn2C	2.67 µM and 1.64 µM	8.01 µM and 5.12 µM	4.12 µM and 2.86 µM	14.5 µM and 8.91 µM	2.44 µM and 1.33 µM	11.8 µM and 3.35 µM	0.769 µM and 0.348 µM	3.21 µM and 3.95 µM	4.56 µM and 2.59 µM	30.3 µM and > 10 µM	2.59 µM and 1.22 µM	13.3 µM and 3.28 µM	0.866 µM and 0.389 µM	7.66 µM and 3.4 µM	1.74 µM and 1.51 µM	13.4 µM and > 10 µM
Cn1c2c(cc(S(=O)(=O)c3ccccc3)c1=O)CCc1c-2cnn1-c1ccc(Cl)cc1	2.49 µM	5.51 µM	3.03 µM	7.82 µM	4.36 µM	> 100 µM	2.24 µM	5.27 µM	2.5 µM	6.71 µM	1.87 µM	3.4 µM	3.24 µM	13.4 µM		
CC(=O)NC1=C(OS(=O)(=O)c2ccc(C)cc2)CN(C)C1=O		16.5 µM		12 µM		14 µM		23.1 µM		20.9 µM		5.84 µM		> 42.7 µM		> 37.3 µM
O=C1c2ccccc2-c2c1c1ccc([N+](=O)[O-])cc1c(=O)n2CCCBr	> 100 µM	> 100 µM	> 100 µM	> 100 µM	3.23 µM	> 100 µM	> 100 µM	> 100 µM	> 100 µM	> 100 µM	> 100 µM	> 100 µM	> 100 µM	> 100 µM	5.26 µM	> 100 µM
Cc1ccc(C2=NOC3=c4ccccc4=CSC3=C2c2ccc([N+](=O)[O-])cc2)cc1	0.58 µM	72.5 µM	19.1 µM	46.2 µM	16.8 µM	46.8 µM	8.59 µM	28 µM	95.6 µM	> 100 µM	7.18 µM	25.4 µM	> 100 µM	> 100 µM	62.3 µM	> 100 µM
C/C(=N\Nc1ccc2ccccc2n1)c1ccccn1	0.1 µM	1.69 µM	0.256 µM	16.6 µM		0.59 µM	< 0.042 µM	4.06 µM	< 0.0204 µM	33.5 µM	0.0768 µM	0.487 µM	0.345 µM	16.2 µM		5.67 µM
COc1cccc(C=Nc2cc(C)ccn2)c1O.COc1cccc(C=Nc2cc(C)ccn2)c1O.[Cu]	14.3 µM	45.2 µM	16.5 µM	42.4 µM	20.5 µM	46 µM	23.2 µM	50.4 µM	25.4 µM	> 100 µM	17 µM	42.9 µM	21.7 µM	48 µM	18.3 µM	51.9 µM
COc1ccc(-c2cc(-c3ccccc3)nc(SCCCC(=O)NO)n2)cc1	0.573 µM	3.49 µM	2.76 µM	13.1 µM	0.335 µM	1.45 µM	1.57 µM	6.1 µM	1.26 µM	9.01 µM	1.47 µM	4.32 µM	1.25 µM	3.12 µM	0.484 µM	4.85 µM
CC(C)(C)c1n[nH]c(=S)n(/N=C/c2ccc(F)c(Oc3ccccc3)c2)c1=O	34.9 µM	> 100 µM	34.5 µM	94.5 µM	28.5 µM	68.9 µM	34.6 µM	> 100 µM	23.8 µM	96.9 µM	43.7 µM	> 100 µM	20.7 µM	> 100 µM	34.7 µM	> 100 µM
C=CC(=O)N1CCN(c2ccc3cccc(NC(=O)c4cnc(C)cn4)c3n2)CC1	1.77 µM	> 100 µM	2.31 µM	21.6 µM	0.555 µM	11.5 µM	3.5 µM	> 100 µM	2.66 µM	> 100 µM	3.16 µM	15.3 µM	7.88 µM	20.5 µM	4.85 µM	34.9 µM
CC(C)CC(CC1=CCC2CC1C2(C)C)C1=C(O)C(C)(C)C(=O)C(C)(C)C1=O (centres undefined)	0.363 µM	> 100 µM	0.413 µM	4.37 µM	0.332 µM	2.29 µM	0.247 µM	0.717 µM	0.486 µM	> 100 µM	0.357 µM	> 100 µM			0.4 µM	> 100 µM
COC(=O)Cn1c2c(c3c(O)cccc31)C(=O)c1ccccc1-2	> 100 µM	> 100 µM	> 100 µM	> 100 µM	> 100 µM	> 100 µM	40.4 µM	> 100 µM	> 100 µM	> 100 µM	> 100 µM	> 100 µM	> 100 µM	> 100 µM	> 100 µM	> 100 µM
O=C(N/N=C/c1ccc2c(c1)CCC2)c1ccccc1O		45 µM		41.7 µM		74.5 µM		58.6 µM		60.2 µM		65.8 µM		68.2 µM		> 100 µM
N#C/C(=C\c1c(-c2ccccc2)[nH]c2ccccc12)S(=O)(=O)c1ccccc1	8.46 µM	> 100 µM	10 µM	> 56.9 µM	5.48 µM	> 63 µM	3.55 µM	33.7 µM	5.47 µM	> 100 µM	2.48 µM	9.51 µM	5.97 µM	28.8 µM	0.544 µM	20.5 µM
CCCn1c(C)nc2c1C(=O)c1ccccc1C2=O	56.8 µM	> 100 µM	31.4 µM	> 100 µM	12.2 µM	42.4 µM	34.1 µM	> 100 µM	25 µM	> 100 µM	27.1 µM	> 100 µM	> 100 µM	> 100 µM	33.5 µM	> 100 µM
